Entries after “also recorded” stand apart in the source; their conditions may differ.
Key:
MAP1LC3B ATG8 [1] = target: T1, MAP1LC3B ATG8 (Homo sapiens, UniProt Q9GZQ8); experiment: FP displacement assay, MAP1LC3B ATG8; assay type: binding; details: for Kd: read-out: KD-values [µM] + SEM
Experimental: (§1) FP experiments were performed, as previously described (Kliche et al, [2021], [2023]), on an iD5 plate reader (Molecular devices) using black half-area non-binding 96-well plates (Corning). In order to calculate the FP signal in millipolarisation (mP), the FITC-labelled peptides were excited at 485 nm and the emitted light was measured at 535 nm in two different angles. For saturation experiments, a dilution series of the respective protein domains was generated (25 µL) and 10 nM fluorescein isothiocyanate (FITC)-labelled peptide (diluted in 50 mM sodium phosphate buffer pH 7.4, 0.05% Tween) were added in an end volume of 50 µL. A control experiment titrating GST was performed for the binding of the NEDD4 WW2 domain, since the GST-tagged construct was used for affinity measurements. For fitting the data, the buffer-corrected reduced values were plotted in GraphPad PRISM against the respective protein concentration and the KD-values were obtained by fitting against the quadratic equation (Gianni et al, [2005]).
(§2) The buffer-corrected reduced values were subsequently plotted against the logarithmic unlabelled peptide concentration to derive the IC50 values by using the sigmoidal dose-response (x is logarithmic) fit in GraphPad PRISM and calculate the KD values as described previously (Nikolovska-Coleska et al, [2004]).

MAP1LC3B ATG8 [2] = target: T1, MAP1LC3B ATG8; experiment: Isothermal titration calorimetry, MAP1LC3B ATG8; assay type: binding; set-up: S∆T / ∆H: unit not given here; details: ITC; for N (stoichiometry of the interaction): N value from the fit or set if necessary
KPNA4 ARM = experiment: GenVar_HD2 ProP-PD phage selection, KPNA4 ARM; assay type: binding, human; details: for max_promiscuity / max_specificity: bait-prey protein level, bait_accession O00629; for Mutation enrichment score: bait KPNA4 ARM, from NGS counts of overlapping wild-type/mutant library peptide pairs, positive = mutation enhances, negative = disrupts binding
ABL1 SH3 = ABL1 SH3 (Homo sapiens, UniProt P00519); experiment: GenVar_HD2 ProP-PD phage selection, ABL1 SH3; assay type: binding; details: for mutant_found: True/False if a mutated peptide was found in selection; for wildtype_found: True/False if a wild type peptide was found in selection; for mutation_effect_on_PPI: bait-mutation pair categorized as diminished, enhanced or no_effect; for max_wildtype_confidence: maximum confidence for an enriched wild type peptide; for max_mutant_confidence: maximum confidence for an enriched mutated peptide; for confidence: confidence of the enriched peptide; for overlap: overlapping peptides; for replicates: replicates in which the peptide was found
Sequence of ABL1 SH3 (P00519 60-121): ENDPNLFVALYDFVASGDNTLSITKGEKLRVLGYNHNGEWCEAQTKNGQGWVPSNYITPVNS

MAP1LC3B ATG8 [3] = target: T1, MAP1LC3B ATG8; experiment: GenVar_HD2 ProP-PD phage selection, MAP1LC3B ATG8; details: bait MAP1LC3B ATG8; from NGS counts of overlapping wild-type/mutant library peptide pairs; positive = mutation enhances, negative = disrupts binding
Experimental: Phage display screens were performed according to previous reports (Benz et al, [2022]; Ali et al, [2020]) and for four consecutive selection rounds with five to six replicates per bait protein domain against the […] library.
On the first day, both bait (15 µg in 100 µL PBS) and control protein domains (GST and MBP; 10 µg in 100 µL PBS) were immobilised on a 96-well MaxiSorb plate (Nunc) overnight in the cold room while shaking. Additionally, a 10 mL culture of Omnimax E. coli bacteria supplemented with 10 µg/mL tetracycline was incubated overnight at 37 °C at 200 rpm.
First, protein solutions were removed from both control and bait protein domain plates and the wells were blocked with 0.5% BSA in PBS (200 µL/well) for 1 h in the cold room while shaking. After that, three Omnimax E. coli cultures were started supplemented with either 30 µg/mL kanamycin, 100 µg/mL carbenicillin and 10 µg/mL tetracycline and incubated at 37 °C and 200 rpm. The two first cultures served as a means to check for helper phage contamination (kanamycin) and phages with library phagemid contamination (carbenicillin) of the culture used for elution of the phages during selections. The tetracycline Omnimax E. coli culture was grown until OD at 600 nm reached 0.6–0.8.
Naïve phage libraries were precipitated (10 µL/well of bait protein domain) by diluting the library tenfold with PBS, adding one-fourth of 20% […] and 400 mM NaCl and incubating the mixture for 15 min on ice. Subsequently, phages were spun down for 15 min at 13,000 × g and resuspended in 0.5% BSA and 0.05% Tween-20 in PBS (100 µL/well). Control domain plates were washed four times with 200 µL 0.05% Tween-20 in PBS, 100 µL of the naïve phage library (10^11 phages/mL) were added to every well and the plates incubated for 1 h in the cold room while shaking. Next, protein bait domain plates were washed four times with 0.05% Tween-20 in PBS and the phage solution from the control protein plate was transferred to the respective wells on the protein bait domain plate. […]

KPNA7 ARM major = KPNA7 ARM major (Homo sapiens, UniProt A9QM74); experiment: FP displacement assay, KPNA7 ARM major pocket; assay type: binding; details: for Kd: read-out: KD-values [µM] + SEM
Sequence of KPNA7 ARM major (A9QM74 66-488 limits assumed): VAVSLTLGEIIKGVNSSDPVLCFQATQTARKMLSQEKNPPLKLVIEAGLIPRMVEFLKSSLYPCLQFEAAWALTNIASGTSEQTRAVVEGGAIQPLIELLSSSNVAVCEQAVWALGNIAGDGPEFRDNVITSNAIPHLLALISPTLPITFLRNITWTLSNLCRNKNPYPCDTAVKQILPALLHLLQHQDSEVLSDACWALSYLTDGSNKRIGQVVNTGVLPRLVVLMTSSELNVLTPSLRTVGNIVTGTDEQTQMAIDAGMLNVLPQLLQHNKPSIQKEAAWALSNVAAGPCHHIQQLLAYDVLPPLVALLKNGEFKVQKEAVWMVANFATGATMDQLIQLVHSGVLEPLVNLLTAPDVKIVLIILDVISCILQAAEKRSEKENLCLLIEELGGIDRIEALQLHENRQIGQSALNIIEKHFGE
Experimental: as §1, §2

KPNA4 ARM major = KPNA4 ARM major (Homo sapiens, UniProt O00629); experiment: FP displacement assay, KPNA4 ARM major pocket; assay type: binding; details: from FP displacement KD values, KPNA4 ARM major pocket
Sequence of KPNA4 ARM major (O00629 68-487): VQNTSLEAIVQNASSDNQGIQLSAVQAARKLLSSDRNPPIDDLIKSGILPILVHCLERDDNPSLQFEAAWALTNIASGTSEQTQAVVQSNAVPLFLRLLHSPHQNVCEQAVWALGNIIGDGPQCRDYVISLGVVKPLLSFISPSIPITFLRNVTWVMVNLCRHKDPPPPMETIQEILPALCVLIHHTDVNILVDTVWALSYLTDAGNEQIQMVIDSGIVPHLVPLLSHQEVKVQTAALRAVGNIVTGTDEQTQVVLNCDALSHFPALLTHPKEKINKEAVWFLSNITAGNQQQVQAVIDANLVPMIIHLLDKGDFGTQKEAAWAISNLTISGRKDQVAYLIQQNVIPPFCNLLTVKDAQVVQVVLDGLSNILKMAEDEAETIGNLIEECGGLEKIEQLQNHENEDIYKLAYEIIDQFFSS
Experimental: as §1, §2

NEDD4 WW2 = NEDD4 WW2 (Homo sapiens, UniProt P46934); experiment: FP displacement assay, NEDD4 WW2; assay type: binding; details: read-out: KD-values [µM] + SEM
Sequence of NEDD4 WW2 (P46934 765-803 limits assumed): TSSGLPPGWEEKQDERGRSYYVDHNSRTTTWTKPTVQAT
Experimental: For saturation experiments, a dilution series of the respective protein domains was generated (25 µL) and 10 nM fluorescein isothiocyanate (FITC)-labelled peptide (diluted in 50 mM sodium phosphate buffer pH 7.4, 0.05% Tween) were added in an end volume of 50 µL. A control experiment titrating GST was performed for the binding of the NEDD4 WW2 domain, since the GST-tagged construct was used for affinity measurements.
If the raw values indicated a FITC-contamination of the unlabelled peptide, the data was excluded and a new batch of peptide was ordered for remeasuring the affinity.

[4] = KD (isothermal titration calorimetry), 50 mM sodium phosphate pH 7.4, 1 mM DTT, peptide titrated in tenfold excess, 16 injections
[5] = phage selection, bait ABL1_SH3__P00519_60_121
[6] = bait domain-prey protein level, bait ABL1_SH3__P00519_60_121

Ac-EDEVYETVVDTSEEDS-NH2 [BRCA2_292-307 wild-type]
Kd (MAP1LC3B ATG8 [1]): 3.12 ± 0.08 µM | Ka (MAP1LC3B ATG8 [2]; replicate 1): 9160 | S∆T (MAP1LC3B ATG8 [2]; replicate 1): -1.5 | ∆H (MAP1LC3B ATG8 [2]; replicate 1): -5832 | N (stoichiometry of the interaction) (MAP1LC3B ATG8 [2]; replicate 1): 0.70 | Ka (MAP1LC3B ATG8 [2]; replicate 2): 55000 | S∆T (MAP1LC3B ATG8 [2]; replicate 2): 13.7 | ∆H (MAP1LC3B ATG8 [2]; replicate 2): -2389 | N (stoichiometry of the interaction) (MAP1LC3B ATG8 [2]; replicate 2): 0.684 | Kd (MAP1LC3B ATG8 [2]; average of the Kd [µM] column, wild-type technical duplicate, mutant technical triplets, read-out: Average Kd): 64 µM | Kd (MAP1LC3B ATG8 [2]; [4]): 20 to 100 µM

A7E2Y1
max_promiscuity (KPNA4 ARM): 10 | max_specificity (KPNA4 ARM): 0.7829

KPPEEPGQCPAPEELPLFPPTGEPSLSPLLGEPALSEPGEP [O14686.P886T]
mutant_found (ABL1 SH3): FALSE | wildtype_found (ABL1 SH3): TRUE | mutation_effect_on_PPI (ABL1 SH3; bait ABL1_SH3__P00519_60_121): diminished | max_wildtype_confidence (ABL1 SH3): 3

HYLDLLALLLDSSEPRFSPPLSPPGPCMPEVFLEAAVALIQ [O15287.P386L]
mutant_found (ABL1 SH3): TRUE | wildtype_found (ABL1 SH3): TRUE | mutation_effect_on_PPI (ABL1 SH3; bait ABL1_SH3__P00519_60_121): no_effect | max_mutant_confidence (ABL1 SH3): 2 | max_wildtype_confidence (ABL1 SH3): 4

Ac-EDEVYEILRDTSEEDS-NH2 [BRCA2_292-307 T298I/V299L/V300R]
Kd (MAP1LC3B ATG8 [1]): 0.52 ± 0.01 µM | Ka (MAP1LC3B ATG8 [2]; replicate 1): 388000 | S∆T (MAP1LC3B ATG8 [2]; replicate 1): 3.04 | ∆H (MAP1LC3B ATG8 [2]; replicate 1): -6718 | N (stoichiometry of the interaction) (MAP1LC3B ATG8 [2]; replicate 1): 0.744 | Ka (MAP1LC3B ATG8 [2]; replicate 2): 524000 | S∆T (MAP1LC3B ATG8 [2]; replicate 2): 3.49 | ∆H (MAP1LC3B ATG8 [2]; replicate 2): -6766 | N (stoichiometry of the interaction) (MAP1LC3B ATG8 [2]; replicate 2): 0.685 | Ka (MAP1LC3B ATG8 [2]; replicate 3): 3280000 | S∆T (MAP1LC3B ATG8 [2]; replicate 3): 8.75 | ∆H (MAP1LC3B ATG8 [2]; replicate 3): -6280 | N (stoichiometry of the interaction) (MAP1LC3B ATG8 [2]; replicate 3): 0.649 | Kd (MAP1LC3B ATG8 [2]; [4]): 2 µM | Mutation enrichment score (MAP1LC3B ATG8 [3]): 15

LSPVRSPTPPAAGFQPLLNGRLVPVPPTTPAPGVQLDVEAL [B1AK53.S719R]
mutant_found (ABL1 SH3): FALSE | wildtype_found (ABL1 SH3): TRUE | mutation_effect_on_PPI (ABL1 SH3; bait ABL1_SH3__P00519_60_121): no_effect | max_wildtype_confidence (ABL1 SH3): 2

LDSSEPRFSPPLSPPG
promiscuity (ABL1 SH3; [5]): 1 | specificity (ABL1 SH3; [5]): 1 | mean_counts_% (ABL1 SH3; phage selection, bait ABL1_SH3__P00519_60_121, NGS counts): 0.0009534% | confidence (ABL1 SH3; [5]): 2 | overlap (ABL1 SH3; [5]): 1 | replicates (ABL1 SH3; [5]): 1

Ac-EPSEKRTRLEEEIVEY-NH2 [CDC45_152-166 wild-type]
Kd (KPNA7 ARM major): 6.6 ± 0.7 µM

O14647
max_promiscuity (KPNA4 ARM): 11 | max_specificity (KPNA4 ARM): 0.5779

CC(=O)NCC(=O)N[C@@H](CC(=O)O)C(=O)N[C@@H](CC(=O)O)C(=O)N[C@@H](CC(=O)O)C(=O)N[C@@H](Cc1c[nH]c2ccccc12)C(=O)N[C@H](C(=O)N[C@@H](Cc1c[nH]cn1)C(=O)N[C@@H](CC(C)C)C(=O)N[C@@H](CO)C(=O)N[C@@H](CO)C(=O)N[C@@H](CCCCN)C(=O)N[C@@H](CCC(=O)O)C(=O)N[C@H](C(=O)N[C@@H](CC(=O)O)C(=O)N1CCC[C@H]1C(=O)N[C@@H](CO)C(N)=O)C(C)C)[C@@H](C)O [SQSTM1_334-349 wild-type]
Kd (MAP1LC3B ATG8 [1]): 0.5 ± 0.1 µM

Ac-EPSEKCTRLEEEIVEY-NH2 [CDC45_152-166 R157C]
weakened binding, mutant vs wild-type peptide (KPNA4 ARM major): 70 fold | loss of binding, mutant vs wild-type peptide (KPNA7 ARM major; from FP displacement KD values, KPNA7 ARM major pocket): 50 fold | Kd (KPNA7 ARM major): 380 ± 15 µM | Mutation enrichment score (KPNA4 ARM): −7

EPRFSPPHSPPGPAMP
promiscuity (ABL1 SH3; [5]): 2 | specificity (ABL1 SH3; [5]): 0.9643 | confidence (ABL1 SH3; [5]): 3 | overlap (ABL1 SH3; [5]): 1 | replicates (ABL1 SH3; [5]): 5

HYLDLLALLLDSSEPRFSPPHSPPGPCMPEVFLEAAVALIQ [O15287.P386H]
mutant_found (ABL1 SH3): TRUE | wildtype_found (ABL1 SH3): TRUE | mutation_effect_on_PPI (ABL1 SH3; bait ABL1_SH3__P00519_60_121): no_effect | max_mutant_confidence (ABL1 SH3): 3 | max_wildtype_confidence (ABL1 SH3): 4

PLFPPPGEPSLSPLLG
promiscuity (ABL1 SH3; [5]): 2 | specificity (ABL1 SH3; [5]): 0.9995 | confidence (ABL1 SH3; [5]): 3 | overlap (ABL1 SH3; [5]): 0 | replicates (ABL1 SH3; [5]): 6

EPRFSPPPSPPGPAMP
promiscuity (ABL1 SH3; [5]): 5 | specificity (ABL1 SH3; [5]): 0.995 | confidence (ABL1 SH3; [5]): 4 | overlap (ABL1 SH3; [5]): 1 | replicates (ABL1 SH3; [5]): 6

KPPEEPGQCPAPEELPLFPPSGEPSLSPLLGEPALSEPGEP [O14686.P886S]
mutant_found (ABL1 SH3): TRUE | wildtype_found (ABL1 SH3): TRUE | mutation_effect_on_PPI (ABL1 SH3; bait ABL1_SH3__P00519_60_121): no_effect | max_mutant_confidence (ABL1 SH3): 1 | max_wildtype_confidence (ABL1 SH3): 3

Ac-PIPGTPPPNYDSLRLQ-NH2 [SCNN1B_611-626 wild-type]
Kd (NEDD4 WW2): 39 ± 3 µM

Ac-LDLDDRWQFKRSQLLD-NH2 [ABRAXAS1_349-364 R361Q]
weakened binding, mutant vs wild-type peptide (KPNA4 ARM major): 400 fold | Mutation enrichment score (KPNA4 ARM): −6

Ac-YPRMPEAARPVAPAPAAP-NH2 [TP53_64-80 P72R]
Mutation enrichment score (ABL1 SH3; bait ABL1 SH3, from NGS counts of overlapping wild-type/mutant library peptide pairs, positive = mutation enhances, negative = disrupts binding): −6

NGSLVPVPPTTPAPGV
promiscuity (ABL1 SH3; [5]): 2 | specificity (ABL1 SH3; [5]): 0.8421 | confidence (ABL1 SH3; [5]): 2 | overlap (ABL1 SH3; [5]): 0 | replicates (ABL1 SH3; [5]): 4

CC(=O)NCC(=O)N[C@@H](CC(=O)O)C(=O)N[C@@H](CC(=O)O)C(=O)N[C@@H](CC(=O)O)C(=O)N[C@@H](Cc1c[nH]c2ccccc12)C(=O)N[C@H](C(=O)N[C@@H](Cc1c[nH]cn1)C(=O)N[C@@H](CC(C)C)C(=O)N[C@@H](CO)C(=O)N[C@@H](CO)C(=O)N[C@@H](CCCCN)C(=O)N[C@@H](CCC(=O)O)C(=O)N[C@H](C(=O)N[C@@H](CC(=O)O)C(=O)N[C@@H](CC(C)C)C(=O)N[C@@H](CO)C(N)=O)C(C)C)[C@@H](C)O [SQSTM1_334-349 P348L]
effect of the mutation on binding (in words) (MAP1LC3B ATG8 [1]; FP affinity measurements, MAP1LC3B ATG8): the mutation has no impact on binding; also recorded: did not affect the binding | Kd (MAP1LC3B ATG8 [1]): 0.6 ± 0.1 µM | Mutation enrichment score (MAP1LC3B ATG8 [3]): 7.6

EGR2
max_promiscuity (ABL1 SH3; [6]): 5 | max_specificity (ABL1 SH3; [6]): 0.973

From PMC11369174, “Proteome-scale characterisation of motif-based interactome rewiring by disease mutations” (Molecular Systems Biology, 2024)
